Test results: patent publication US20240246940A1, “HETEROARYL DERIVATIVE COMPOUND AND USE THEREOF” (VORONOI INC., priority 2021, published 2024)

What was measured:
HER2 = target: T1, HER2 (Homo sapiens, UniProt P04626); assay: Biochemical kinase assay for HER2 (Reaction Biology Corp), ATP 10 μM, 10-dose IC50
T1 construct: purchased Reaction Biology Corp
Description: (§1) Biochemical kinase assays for HER2 and EGFR were performed by Reaction Biology Corp (San Diego, USA).

EGFR = target: T2, EGFR (Homo sapiens, UniProt P00533); assay: Biochemical kinase assay for EGFR (Reaction Biology Corp), ATP 10 μM, 10-dose IC50
T2 construct: purchased Reaction Biology Corp
T2 sequence (P00533 25-1210): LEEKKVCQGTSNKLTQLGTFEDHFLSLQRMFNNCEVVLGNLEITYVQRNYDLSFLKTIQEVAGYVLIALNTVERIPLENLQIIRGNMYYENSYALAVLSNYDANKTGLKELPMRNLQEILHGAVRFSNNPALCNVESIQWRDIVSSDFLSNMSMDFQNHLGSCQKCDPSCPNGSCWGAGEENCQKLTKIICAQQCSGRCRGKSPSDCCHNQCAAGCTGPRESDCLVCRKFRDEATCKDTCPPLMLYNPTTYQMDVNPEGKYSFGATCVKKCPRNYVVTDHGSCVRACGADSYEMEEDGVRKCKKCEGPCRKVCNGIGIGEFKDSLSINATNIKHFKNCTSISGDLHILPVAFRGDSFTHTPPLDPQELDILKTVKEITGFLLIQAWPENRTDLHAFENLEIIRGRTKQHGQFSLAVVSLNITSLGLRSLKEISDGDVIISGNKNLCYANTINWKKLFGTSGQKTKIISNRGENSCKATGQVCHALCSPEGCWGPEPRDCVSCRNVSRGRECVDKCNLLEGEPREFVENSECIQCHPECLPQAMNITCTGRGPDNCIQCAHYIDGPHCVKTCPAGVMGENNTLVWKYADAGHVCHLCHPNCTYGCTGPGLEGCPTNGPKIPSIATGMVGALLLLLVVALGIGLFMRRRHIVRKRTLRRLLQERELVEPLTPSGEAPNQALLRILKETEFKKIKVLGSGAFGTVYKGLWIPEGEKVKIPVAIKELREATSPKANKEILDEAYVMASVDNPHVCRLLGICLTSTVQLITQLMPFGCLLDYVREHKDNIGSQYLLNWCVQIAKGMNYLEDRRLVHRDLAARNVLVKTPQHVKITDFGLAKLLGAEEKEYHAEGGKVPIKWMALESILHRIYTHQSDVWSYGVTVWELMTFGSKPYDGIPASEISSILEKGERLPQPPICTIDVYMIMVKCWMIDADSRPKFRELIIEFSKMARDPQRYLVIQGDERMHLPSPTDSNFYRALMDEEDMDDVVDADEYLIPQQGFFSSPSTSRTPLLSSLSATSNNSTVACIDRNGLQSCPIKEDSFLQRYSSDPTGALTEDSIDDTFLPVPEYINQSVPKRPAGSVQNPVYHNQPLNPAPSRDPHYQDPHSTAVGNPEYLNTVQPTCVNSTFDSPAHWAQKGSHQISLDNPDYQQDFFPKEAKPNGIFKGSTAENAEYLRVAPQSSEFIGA
Description: as §1

[1] = system: SK-BR-3 cells (HER2 overexpressing cell line); assay: SK-BR-3 cell proliferation inhibitory activity (CellTiter-Glo, 120 hours); type: cell-based; details: Homo sapiens
In short: (§2)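 GI50 values derive from luminescence-based live-cell counts, expressed relative to control growth. Final compound ranges were 0.2 nM–10 μM for the two breast lines, […]–5 μM in N-87 and 0.8 nM–45 μM in HaCaT. Tests were run three times.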

[2] = system: BT-474 cells (HER2 overexpressing cell line); assay: BT-474 cell proliferation inhibitory activity (CellTiter-Glo, 120 hours); type: cell-based; details: Homo sapiens
In short: as §2

[3] = system: N-87 cells (HER2 overexpressing cell line); assay: N-87 cell proliferation inhibitory activity (CellTiter-Glo, 72 hours); type: cell-based
In short: as §2

[4] = system: HaCaT cells (EGFR expressing cell line); assay: HaCaT cell proliferation inhibitory activity (CellTiter-Glo, 72 hours); type: cell-based; details: Homo sapiens
In short: as §2

[5] = system: Ba/F3 cells expressing HER2 L869R; assay: Transduced Ba/F3 cell proliferation inhibitory activity, HER2 L869R; type: cell-based; details: Mus musculus, BaF3, 72 hours
Description: (§3) For Ba/F3 cells, RPMI-1640 supplemented with 10% FBS and 5 ng/ml IL-3 (R&D Systems) was used. Transduced Ba/F3 cells were cultured by adding 1 μg/ml puromycin (Invitrogen) to the same medium.
(§4) 3000 to 5000 cells were aliquoted into each well of a white clear bottom 96 well plate (Corning) 24 hours before treatment with the compounds of Examples. The compounds of Examples were diluted in dimethyl sulfoxide (three-fold dilution, a total of 12 concentrations) and injected each in an amount of 1 μl to a final concentration of 0.2 nM to 5 μM. For the measurement of living cells, the cells were stored at room temperature for 10 minutes using CellTiter-Glo luminescent cell-viability reagent (Promega) in 72 hours after treatment with the compounds of Examples, and the luminescence intensity thereof was measured using a reader (SynergyNeo, Biotek). Each test was repeated three times. The result values were calculated as a cell growth rate (%) compared to those of the control group. A graph was created using the GraphPad Prism version 8.3.0 program, and GI50 values were calculated.

[6] = system: Ba/F3 cells expressing HER2 L756S; assay: Transduced Ba/F3 cell proliferation inhibitory activity, HER2 L756S; type: cell-based; details: Mus musculus, BaF3; Ba/F3 HER2 L755S, 72 hours
Description: as §3, §4

[7] = system: Ba/F3 cells expressing HER2 T798I; assay: Transduced Ba/F3 cell proliferation inhibitory activity, HER2 T798I; type: cell-based; details: Mus musculus, BaF3, 72 hours
Description: as §3, §4

[8] = system: Ba/F3 cells expressing HER2 T862A; assay: Transduced Ba/F3 cell proliferation inhibitory activity, HER2 T862A; type: cell-based; details: Mus musculus, BaF3, 72 hours
Description: as §3, §4

[9] = system: Ba/F3 cells expressing EGFR G719A; assay: Transduced Ba/F3 cell proliferation inhibitory activity, EGFR G719A; type: cell-based; details: Mus musculus, BaF3, 72 hours
Description: as §3, §4

[10] = system: Ba/F3 cells expressing EGFR L861Q; assay: Transduced Ba/F3 cell proliferation inhibitory activity, EGFR L861Q; type: cell-based; details: Mus musculus, BaF3, 72 hours
Description: as §3, §4

[11] = system: Ba/F3 cells expressing EGFR S768I; assay: Transduced Ba/F3 cell proliferation inhibitory activity, EGFR S768I; type: cell-based; details: Mus musculus, BaF3, 72 hours
Description: as §3, §4

[12] = system: Ba/F3 cells expressing EGFR G719A/S768I; assay: Transduced Ba/F3 cell proliferation inhibitory activity, EGFR G719A/S768I; type: cell-based; details: Mus musculus, BaF3, 72 hours
Description: as §3, §4

[13] = system: Ba/F3 cells expressing EGFR Del19/T790M; assay: Transduced Ba/F3 cell proliferation inhibitory activity, EGFR Del19/T790M; type: cell-based; details: Mus musculus, BaF3, 72 hours
Description: as §3, §4

[14] = system: Ba/F3 cells expressing HER2 WT; assay: Transduced Ba/F3 cell proliferation inhibitory activity, HER2 WT; type: cell-based; details: Mus musculus, BaF3, 72 hours
Description: as §3, §4

[15] = system: Ba/F3 cells expressing EGFR WT; assay: Transduced Ba/F3 cell proliferation inhibitory activity, EGFR WT; type: cell-based; details: Mus musculus, BaF3, 72 hours
Description: as §3, §4

T1 sequence (P04626 23-1255): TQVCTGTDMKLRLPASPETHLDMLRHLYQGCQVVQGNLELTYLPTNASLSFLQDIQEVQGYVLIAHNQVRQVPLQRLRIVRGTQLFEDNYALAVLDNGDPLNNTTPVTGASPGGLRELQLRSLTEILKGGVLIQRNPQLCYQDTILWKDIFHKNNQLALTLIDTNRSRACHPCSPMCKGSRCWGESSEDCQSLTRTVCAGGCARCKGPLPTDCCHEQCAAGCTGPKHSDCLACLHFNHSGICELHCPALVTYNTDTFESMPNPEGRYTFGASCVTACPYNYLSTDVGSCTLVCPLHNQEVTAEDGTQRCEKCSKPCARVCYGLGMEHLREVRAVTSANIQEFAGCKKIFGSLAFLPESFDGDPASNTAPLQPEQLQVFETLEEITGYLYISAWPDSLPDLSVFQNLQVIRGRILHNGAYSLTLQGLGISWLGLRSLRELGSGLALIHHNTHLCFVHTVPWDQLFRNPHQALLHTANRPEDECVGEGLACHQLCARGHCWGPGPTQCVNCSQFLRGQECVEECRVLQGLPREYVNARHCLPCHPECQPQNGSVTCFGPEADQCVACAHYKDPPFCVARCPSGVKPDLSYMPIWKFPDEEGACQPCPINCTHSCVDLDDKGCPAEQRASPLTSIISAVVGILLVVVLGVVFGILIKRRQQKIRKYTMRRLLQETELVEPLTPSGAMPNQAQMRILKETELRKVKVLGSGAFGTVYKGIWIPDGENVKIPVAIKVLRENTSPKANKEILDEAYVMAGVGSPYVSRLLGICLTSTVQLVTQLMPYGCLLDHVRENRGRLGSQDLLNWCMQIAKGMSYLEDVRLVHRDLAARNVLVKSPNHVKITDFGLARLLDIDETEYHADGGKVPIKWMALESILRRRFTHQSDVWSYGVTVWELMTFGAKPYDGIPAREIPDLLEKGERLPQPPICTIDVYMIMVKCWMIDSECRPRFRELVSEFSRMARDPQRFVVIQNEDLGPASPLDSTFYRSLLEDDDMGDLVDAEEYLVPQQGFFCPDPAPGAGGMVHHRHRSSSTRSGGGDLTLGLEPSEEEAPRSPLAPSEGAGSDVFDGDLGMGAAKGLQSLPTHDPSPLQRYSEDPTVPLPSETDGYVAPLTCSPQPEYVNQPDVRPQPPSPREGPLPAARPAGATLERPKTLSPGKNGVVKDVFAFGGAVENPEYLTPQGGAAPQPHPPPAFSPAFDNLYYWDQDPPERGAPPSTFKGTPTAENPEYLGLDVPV

IC50 (HER2) [nM] | IC50 (EGFR) [nM] | GI50 [1] [nM] | GI50 [2] [nM] | GI50 [5] [nM] | GI50 [6] [nM] | GI50 [7] [nM] | GI50 [8] [nM] | GI50 [9] [nM] | GI50 [10] [nM] | GI50 [11] [nM] | GI50 [12] [nM] | GI50 [13] [nM] | GI50 [14] [nM] | GI50 [15] [nM] | Compound | GI50 [3] [nM] | GI50 [4] [nM]
≤ 50 | ≤ 50 | ≤ 150 | ≤ 150 | ≤ 50 | ≤ 50 | 100 to 500 | ≤ 50 | ≤ 50 | ≤ 50 | 50 to 100 | ≤ 50 | ≤ 50 | ≤ 50 | 50 to 100 | C=CC(=O)N1CCC(Oc2cc3c(Nc4cc(-c5ccc(F)cc5F)ccc4OC)ncnc3cc2OC)CC1 [Example 68, 1-(4-((4-((2′,4′-difluoro-4-methoxy-[1,1′-biphenyl]-3-yl)amino)-7-methoxy-quinazolin-6-yl)oxy)piperidin-1-yl)prop-2-en-1-one] | ≤ 150 | ≤ 150
 |  | ≤ 150 |  | ≤ 50 |  | ≤ 50 |  |  |  |  |  |  |  |  | C=CC(=O)N1CCC(Oc2cc3c(Nc4cc(-c5cccs5)ccc4OC)ncnc3cc2OC)CC1 [Example 78, 1-(4-((7-methoxy-4-((2-methoxy-5-(thiophen-2-yl)phenyl)amino)quinazolin-6-yl)oxy)piperidin-1-yl)prop-2-en-1-one] |  | 
≤ 50 |  | ≤ 150 | ≤ 150 | ≤ 50 | ≤ 50 | ≤ 50 | ≤ 50 | ≤ 50 | ≤ 50 | ≤ 50 | ≤ 50 | ≤ 50 | ≤ 50 | ≤ 50 | C=CC(=O)N1CCC(Oc2cc3c(Nc4cc(-c5ccco5)ccc4OC)ncnc3cc2OC)CC1 [Example 80, 1-(4-((4-((5-(furan-2-yl)-2-methoxyphenyl)amino)-7-methoxy-quinazolin-6-yl)oxy)piperidin-1-yl)prop-2-en-1-one] |  | ≤ 150
≤ 50 |  |  |  |  |  |  |  |  |  |  |  |  |  |  | C=CC(=O)N1CCC(Oc2cc3c(Nc4cc(-c5cc(C)co5)ccc4OC)ncnc3cc2OC)CC1 [Example 90, 1-(4-((7-methoxy-4-((2-methoxy-5-(4-methylfuran-2-yl)phenyl)amino)quinazolin-6-yl)oxy)piperidin-1-yl)prop-2-en-1-one] |  | 
 |  | ≤ 150 | ≤ 150 | ≤ 50 | ≤ 50 |  | ≤ 50 |  |  |  |  |  |  |  | C=CC(=O)N1CCC(Oc2cc3c(Nc4cc(-c5ccco5)ccc4OC)ncnc3cc2OC)C(F)C1 (stereo not drawn) [Example 112, 1-(3-fluoro-4-((4-((5-(furan-2-yl)-2-methoxyphenyl)amino)-7-methoxy-quinazolin-6-yl)oxy)piperidin-1-yl)prop-2-en-1-one] | ≤ 150 | ≤ 150
 |  | ≤ 150 | ≤ 150 | ≤ 50 | ≤ 50 |  | ≤ 50 |  |  |  |  |  |  |  | C=CC(=O)N1CCC(Oc2cc3c(Nc4cc(-c5ccc(F)cc5F)ccc4OC)ncnc3cc2OC)C(F)C1 (stereo not drawn) [Example 143, 1-(4-((4-((2′,4′-difluoro-4-methoxy-[1,1′-biphenyl]-3-yl)amino)-7-methoxy-quinazolin-6-yl)oxy)-3-fluoropiperidin-1-yl)prop-2-en-1-one] | ≤ 150 | ≤ 150
≤ 50 |  |  | ≤ 150 |  |  |  |  |  |  |  |  |  |  |  | C=CC(=O)N1CCC(Oc2cc3c(Nc4cc(-c5ccc(F)cc5F)c(F)cc4OC)ncnc3cc2OC)CC1 [Example 157, 1-(4-((7-methoxy-4-((2′,4′,6-trifluoro-4-methoxy-[1,1′-biphenyl]-3-yl)amino)quinazolin-6-yl)oxy)piperidin-1-yl)prop-2-en-1-one] | ≤ 150 | ≤ 150
 |  | ≤ 150 | ≤ 150 |  |  |  |  |  |  |  |  |  |  |  | C=CC(=O)N1CCC(Nc2cc3c(Nc4cc(-c5ccc(F)cc5F)ccc4OC)ncnc3cc2OC2CCOC2)CC1 (stereo not drawn) [Example 286, 1-(4-((4-((2′,4′-difluoro-4-methoxy-[1,1′-biphenyl]-3-yl)amino)-7-((tetrahydrofuran-3-yl)oxy)quinazolin-6-yl)amino)piperidin-1-yl)prop-2-en-1-one] | ≤ 150 | ≤ 150
 |  | ≤ 150 | ≤ 150 |  |  |  |  |  |  |  |  |  |  |  | C=CC(=O)N1CCC(Nc2cc3c(Nc4cc(-c5ccco5)ccc4OC)ncnc3cc2OC)CC1 [Example 298, 1-(4-((4-((5-(furan-2-yl)-2-methoxyphenyl)amino)-7-methoxyquinazolin-6-yl)amino)piperidin-1-yl)prop-2-en-1-one] | ≤ 150 | ≤ 150
 |  | ≤ 150 | ≤ 150 |  |  |  |  |  |  |  |  |  |  |  | C=CC(=O)N1CCC(Nc2cc3c(Nc4cc(-c5ccc(F)cc5F)ccc4OC)ncnc3cc2OC)CC1 [Example 299, 1-(4-((4-((2′,4′-difluoro-4-methoxy-[1,1′-biphenyl]-3-yl)amino)-7-methoxyquinazolin-6-yl)amino)piperidin-1-yl)prop-2-en-1-one] | ≤ 150 | ≤ 150
 |  |  | ≤ 150 |  | ≤ 50 | 100 to 500 | ≤ 50 |  |  |  |  |  | ≤ 50 |  | C=CC(=O)N1CCC(Nc2cc3c(Nc4cc(-c5ccco5)ccc4OC)ncnc3cc2OCC)CC1 [Example 300, 1-(4-((7-ethoxy-4-((5-(furan-2-yl)-2-methoxyphenyl)amino)quinazolin-6-yl)amino)piperidin-1-yl)prop-2-en-1-one] | ≤ 150 | ≤ 150
≤ 50 | ≤ 50 |  | ≤ 150 |  |  |  |  |  |  |  |  |  |  |  | COc1cc2ncnc(Nc3cc(-c4ccc(F)cc4F)ccc3OC)c2cc1NC(=O)/C(F)=C\[C@H]1CCCN1C [Example 304, (R,E)-N-(4-((2′,4′-difluoro-4-methoxy-[1,1′-biphenyl]-3-yl)amino)-7-methoxyquinazolin-6-yl)-2-fluoro-3-(1-methylpyrrolidin-2-yl)acrylamide] | ≤ 150 | ≤ 150
≤ 50 | ≤ 50 | ≤ 150 | ≤ 150 |  | ≤ 50 | ≤ 50 | ≤ 50 |  |  |  |  |  | ≤ 50 |  | COc1cc2ncnc(Nc3cc(-c4ccc(F)cc4F)ccc3OC)c2cc1NC(=O)/C=C/[C@H]1CCCN1C [Example 305, (R,E)-N-(4-((2′,4′-difluoro-4-methoxy-[1,1′-biphenyl]-3-yl)amino)-7-methoxyquinazolin-6-yl)-3-(1-methylpyrrolidin-2-yl)acrylamide] | ≤ 150 | ≤ 150
≤ 50 | ≤ 50 | ≤ 150 | ≤ 150 |  |  |  |  |  |  | ≤ 50 |  |  |  | ≤ 50 | COc1cc2ncnc(Nc3cc(-c4ccco4)ccc3OC)c2cc1NC(=O)/C=C/[C@H]1CCCN1C [Example 306, (R,E)-N-(4-((5-(furan-2-yl)-2-methoxyphenyl)amino)-7-methoxyquinazolin-6-yl)-3-(1-methylpyrrolidin-2-yl)acrylamide] | ≤ 150 | ≤ 150
 |  | ≤ 150 | ≤ 150 |  |  |  |  |  |  | ≤ 50 |  |  |  | ≤ 50 | COc1cc2ncnc(Nc3cc(-c4ccco4)ccc3OC)c2cc1NC(=O)/C(F)=C\[C@H]1CCCN1C [Example 307, (R,E)-2-fluoro-N-(4-((5-(furan-2-yl)-2-methoxyphenyl)amino)-7-methoxyquinazolin-6-yl)-3-(1-methylpyrrolidin-2-yl)acrylamide] | ≤ 150 | ≤ 150
